Results as given in PubChem BioAssay (NCI).
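Values below derive from 48-hour exposures of cells grown in 96-well plates, with endpoints linearly interpolated between the two concentrations bracketing the appropriate inhibition level. GI50 = concentration required for 50% inhibition of growth. Definition used: TGI = concentration required for complete inhibition of growth.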

Legend:
Test in all cases: DTP human tumour cell line panel, 48 h
786-0 renal = test system: 786-0 renal
A498 renal = test system: A498 renal
A549 NSCLC = test system: A549 NSCLC
ACHN renal = test system: ACHN renal
CAKI-1 renal = test system: CAKI-1 renal
CCRF-CEM leukemia = test system: CCRF-CEM leukemia
COLO 205 colon = test system: COLO 205 colon
HCT-116 colon = test system: HCT-116 colon
HCT-15 colon = test system: HCT-15 colon
HL-60(TB) leukemia = test system: HL-60(TB) leukemia
HOP-62 NSCLC = test system: HOP-62 NSCLC
HS 578T breast = test system: HS 578T breast
HT29 colon = test system: HT29 colon
IGROV1 ovarian = test system: IGROV1 ovarian
K-562 leukemia = test system: K-562 leukemia
KM12 colon = test system: KM12 colon
LOX IMVI melanoma = test system: LOX IMVI melanoma
M14 melanoma = test system: M14 melanoma
MCF7 breast = test system: MCF7 breast
MDA-MB-231 breast = test system: MDA-MB-231 breast
MDA-MB-435 = test system: MDA-MB-435
NCI-H226 lung = test system: NCI-H226 lung
NCI-H23 lung = test system: NCI-H23 lung
NCI-H460 lung = test system: NCI-H460 lung
NCI-H522 lung = test system: NCI-H522 lung
NCI/ADR-RES ovarian = test system: NCI/ADR-RES ovarian
OVCAR-3 ovarian = test system: OVCAR-3 ovarian
OVCAR-4 ovarian = test system: OVCAR-4 ovarian
OVCAR-5 ovarian = test system: OVCAR-5 ovarian
OVCAR-8 ovarian = test system: OVCAR-8 ovarian
PC-3 prostate = test system: PC-3 prostate
RPMI-8226 leukemia = test system: RPMI-8226 leukemia
RXF 393 renal = test system: RXF 393 renal
SF-268 CNS = test system: SF-268 CNS
SF-295 CNS = test system: SF-295 CNS
SK-MEL-28 melanoma = test system: SK-MEL-28 melanoma
SK-OV-3 ovarian = test system: SK-OV-3 ovarian
SN12C renal = test system: SN12C renal
SNB-19 CNS = test system: SNB-19 CNS
SNB-75 CNS = test system: SNB-75 CNS
SR leukemia = test system: SR leukemia
T-47D breast = test system: T-47D breast
TK-10 renal = test system: TK-10 renal
U251 CNS = test system: U251 CNS
UACC-257 melanoma = test system: UACC-257 melanoma
UO-31 renal = test system: UO-31 renal

**Q.** With `O=C1c2ccn(CCCCN3CCOCC3)c2C(=O)c2c1c(O)c1ccccc1c2O` as the molecule, how does the GI50 (786-0 renal) read?
**A.** Its GI50 is 6.34 µM.

**Q.** What about the TGI (786-0 renal) of the same molecule?
**A.** The TGI was 25.2 µM.

**Q.** And the GI50 (A498 renal)?
**A.** The GI50 was 19.3 µM.

**Q.** And the TGI (A498 renal)?
**A.** The TGI was greater than 100 µM.

**Q.** What about the GI50 (A549 NSCLC) of the same molecule?
**A.** The GI50 was 14.4 µM.

**Q.** And the TGI (A549 NSCLC)?
**A.** Its TGI is 38.7 µM.

**Q.** What about the GI50 (ACHN renal) of the same molecule?
**A.** Its GI50 is 10.8 µM.

**Q.** And the TGI (ACHN renal)?
**A.** The TGI was 28.4 µM.

**Q.** What about the GI50 (CAKI-1 renal) of the same molecule?
**A.** The GI50 was 5.94 µM.

**Q.** And the TGI (CAKI-1 renal)?
**A.** Its TGI is 21 µM.

**Q.** And the GI50 (CCRF-CEM leukemia)?
**A.** The GI50 was 2750 nM.

**Q.** What about the TGI (CCRF-CEM leukemia) of the same molecule?
**A.** Its TGI is greater than 100 µM.

**Q.** And the GI50 (COLO 205 colon)?
**A.** The GI50 was 5.69 µM.

**Q.** What about the TGI (COLO 205 colon) of the same molecule?
**A.** The TGI was 34 µM.

**Q.** And the GI50 (HCT-116 colon)?
**A.** Its GI50 is 7.03 µM.

**Q.** And the TGI (HCT-116 colon)?
**A.** Its TGI is 19.9 µM.

**Q.** What about the GI50 (HCT-15 colon) of the same molecule?
**A.** The GI50 was 3.82 µM.

**Q.** And the TGI (HCT-15 colon)?
**A.** Its TGI is 25.5 µM.

**Q.** What about the GI50 (HL-60(TB) leukemia) of the same molecule?
**A.** Its GI50 is 9.07 µM.

**Q.** What about the TGI (HL-60(TB) leukemia) of the same molecule?
**A.** Its TGI is 59.9 µM.

**Q.** What about the GI50 (HOP-62 NSCLC) of the same molecule?
**A.** The GI50 was 14.7 µM.

**Q.** What about the TGI (HOP-62 NSCLC) of the same molecule?
**A.** The TGI was 34.5 µM.

**Q.** What about the GI50 (HS 578T breast) of the same molecule?
**A.** Its GI50 is 29.8 µM.

**Q.** What about the TGI (HS 578T breast) of the same molecule?
**A.** The TGI was greater than 100 µM.

**Q.** And the GI50 (HT29 colon)?
**A.** Its GI50 is 3.75 µM.

**Q.** And the TGI (HT29 colon)?
**A.** The TGI was 97 µM.

**Q.** What about the GI50 (IGROV1 ovarian) of the same molecule?
**A.** The GI50 was 20.5 µM.

**Q.** What about the TGI (IGROV1 ovarian) of the same molecule?
**A.** Its TGI is greater than 100 µM.

**Q.** And the GI50 (K-562 leukemia)?
**A.** The GI50 was 2000 nM.

**Q.** What about the TGI (K-562 leukemia) of the same molecule?
**A.** The TGI was 4.53 µM.

**Q.** What about the GI50 (KM12 colon) of the same molecule?
**A.** The GI50 was 5.21 µM.

**Q.** And the TGI (KM12 colon)?
**A.** Its TGI is 18.8 µM.

**Q.** And the GI50 (LOX IMVI melanoma)?
**A.** The GI50 was 3.58 µM.

**Q.** And the TGI (LOX IMVI melanoma)?
**A.** The TGI was 23.1 µM.

**Q.** And the GI50 (M14 melanoma)?
**A.** Its GI50 is 2360 nM.

**Q.** And the TGI (M14 melanoma)?
**A.** Its TGI is 6.32 µM.

**Q.** And the GI50 (MCF7 breast)?
**A.** The GI50 was 6.26 µM.

**Q.** And the TGI (MCF7 breast)?
**A.** The TGI was 24.8 µM.

**Q.** What about the GI50 (MDA-MB-231 breast) of the same molecule?
**A.** Its GI50 is 12.7 µM.

**Q.** And the TGI (MDA-MB-231 breast)?
**A.** The TGI was 32.4 µM.

**Q.** And the GI50 (MDA-MB-435)?
**A.** The GI50 was 2130 nM.

**Q.** And the TGI (MDA-MB-435)?
**A.** Its TGI is 4.62 µM.

**Q.** What about the GI50 (NCI-H226 lung) of the same molecule?
**A.** Its GI50 is 5.32 µM.

**Q.** What about the TGI (NCI-H226 lung) of the same molecule?
**A.** Its TGI is 42.5 µM.

**Q.** And the GI50 (NCI-H23 lung)?
**A.** The GI50 was 11.4 µM.

**Q.** And the TGI (NCI-H23 lung)?
**A.** The TGI was 23.6 µM.

**Q.** What about the GI50 (NCI-H460 lung) of the same molecule?
**A.** The GI50 was 12.3 µM.

**Q.** And the TGI (NCI-H460 lung)?
**A.** Its TGI is 28.4 µM.

**Q.** What about the GI50 (NCI-H522 lung) of the same molecule?
**A.** Its GI50 is 40.3 µM.

**Q.** And the TGI (NCI-H522 lung)?
**A.** Its TGI is greater than 100 µM.

**Q.** What about the GI50 (NCI/ADR-RES ovarian) of the same molecule?
**A.** Its GI50 is 4.44 µM.

**Q.** What about the TGI (NCI/ADR-RES ovarian) of the same molecule?
**A.** Its TGI is 23.8 µM.

**Q.** And the GI50 (OVCAR-3 ovarian)?
**A.** Its GI50 is 1620 nM.

**Q.** What about the TGI (OVCAR-3 ovarian) of the same molecule?
**A.** The TGI was 8.77 µM.

**Q.** And the GI50 (OVCAR-4 ovarian)?
**A.** Its GI50 is 30.3 µM.

**Q.** What about the TGI (OVCAR-4 ovarian) of the same molecule?
**A.** Its TGI is greater than 100 µM.

**Q.** And the GI50 (OVCAR-5 ovarian)?
**A.** The GI50 was 11.1 µM.

**Q.** And the TGI (OVCAR-5 ovarian)?
**A.** Its TGI is 23.8 µM.

**Q.** What about the GI50 (OVCAR-8 ovarian) of the same molecule?
**A.** Its GI50 is 5.52 µM.

**Q.** And the TGI (OVCAR-8 ovarian)?
**A.** The TGI was 20 µM.

**Q.** And the GI50 (PC-3 prostate)?
**A.** Its GI50 is 6.96 µM.

**Q.** What about the TGI (PC-3 prostate) of the same molecule?
**A.** Its TGI is 27.3 µM.

**Q.** And the GI50 (RPMI-8226 leukemia)?
**A.** The GI50 was 3.53 µM.

**Q.** And the TGI (RPMI-8226 leukemia)?
**A.** The TGI was greater than 100 µM.

**Q.** And the GI50 (RXF 393 renal)?
**A.** Its GI50 is 2200 nM.

**Q.** And the TGI (RXF 393 renal)?
**A.** Its TGI is 6.93 µM.

**Q.** And the GI50 (SF-268 CNS)?
**A.** The GI50 was 9.44 µM.

**Q.** What about the TGI (SF-268 CNS) of the same molecule?
**A.** The TGI was 30.9 µM.

**Q.** What about the GI50 (SF-295 CNS) of the same molecule?
**A.** The GI50 was 3.58 µM.

**Q.** What about the TGI (SF-295 CNS) of the same molecule?
**A.** The TGI was 16.2 µM.

**Q.** What about the GI50 (SK-MEL-28 melanoma) of the same molecule?
**A.** The GI50 was 25.8 µM.

**Q.** And the TGI (SK-MEL-28 melanoma)?
**A.** Its TGI is greater than 100 µM.

**Q.** What about the GI50 (SK-OV-3 ovarian) of the same molecule?
**A.** The GI50 was 16.2 µM.

**Q.** And the TGI (SK-OV-3 ovarian)?
**A.** The TGI was 55.4 µM.

**Q.** What about the GI50 (SN12C renal) of the same molecule?
**A.** The GI50 was 11.4 µM.

**Q.** What about the TGI (SN12C renal) of the same molecule?
**A.** The TGI was 24 µM.

**Q.** What about the GI50 (SNB-19 CNS) of the same molecule?
**A.** The GI50 was 19.6 µM.

**Q.** And the TGI (SNB-19 CNS)?
**A.** Its TGI is 60.4 µM.

**Q.** What about the GI50 (SNB-75 CNS) of the same molecule?
**A.** Its GI50 is greater than 100 µM.

**Q.** And the TGI (SNB-75 CNS)?
**A.** Its TGI is greater than 100 µM.

**Q.** What about the GI50 (SR leukemia) of the same molecule?
**A.** Its GI50 is 4.55 µM.

**Q.** And the TGI (SR leukemia)?
**A.** The TGI was 33.6 µM.

**Q.** What about the GI50 (T-47D breast) of the same molecule?
**A.** The GI50 was 8.45 µM.

**Q.** What about the TGI (T-47D breast) of the same molecule?
**A.** Its TGI is 97.7 µM.

**Q.** What about the GI50 (TK-10 renal) of the same molecule?
**A.** The GI50 was 1560 nM.

**Q.** And the TGI (TK-10 renal)?
**A.** The TGI was 7.7 µM.

**Q.** And the GI50 (U251 CNS)?
**A.** The GI50 was 10.9 µM.

**Q.** And the TGI (U251 CNS)?
**A.** Its TGI is 31.8 µM.

**Q.** What about the GI50 (UACC-257 melanoma) of the same molecule?
**A.** Its GI50 is 8.43 µM.

**Q.** What about the TGI (UACC-257 melanoma) of the same molecule?
**A.** Its TGI is 27.4 µM.

**Q.** And the GI50 (UO-31 renal)?
**A.** Its GI50 is 27.5 µM.

**Q.** What about the TGI (UO-31 renal) of the same molecule?
**A.** The TGI was greater than 100 µM.
